According to ChEMBL document CHEMBL5113380, “Functionalized quinoxalinones as privileged structures with broad-ranging pharmacological activities” (Eur J Med Chem, 2022):
Values after ≈ are worked out from the molar mass of the structure shown.

Tests used:
[1] = molecular target: T1, Glutamate receptor ionotropic AMPA (Homo sapiens, UniProt P42261+P42262+P42263+P48058); test: Displacement of [3H]AMPA from AMPA receptor (unknown origin); format: protein-complex assay
[2] = molecular target: Glutamate [NMDA] receptor; test: Antagonist activity at NMDA receptor (unknown origin) assessed as NMDA-induced depolarizations; format: protein-complex assay, Homo sapiens
[3] = molecular target: Glutamate [NMDA] receptor; test: Displacement of [3H]MK-801 from NMDA receptor (unknown origin); format: protein-complex assay, Homo sapiens
[4] = molecular target: T1, Glutamate receptor ionotropic AMPA; test: Displacement of [3H]kainic acid from AMPA receptor (unknown origin); format: protein-complex assay
[5] = Displacement of [3H]glycine from AMPA receptor (unknown origin); format: protein-complex assay, Homo sapiens
[6] = molecular target: T1, Glutamate receptor ionotropic AMPA; test: Antagonist activity at AMPA receptor (unknown origin) assessed as AMPA-induced depolarizations; format: protein-complex assay
[7] = molecular target: Voltage-gated inwardly rectifying potassium channel KCNH2 (Homo sapiens, UniProt Q12809); test: Inhibition of hERG; format: toxicity
Staphylococcus aureus [8] = test: Antibacterial activity against Staphylococcus aureus; format: functional
Klebsiella pneumoniae = test: Antibacterial activity against Klebsiella pneumoniae; format: functional
Escherichia coli [9] = test: Antibacterial activity against Escherichia coli; format: functional
[10] = Inhibition of Escherichia coli topoisomerase 4
Pseudomonas aeruginosa [11] = test: Antibacterial activity against Pseudomonas aeruginosa; format: functional
[12] = Lipophilicity, logD of compound; format: physicochemical; settings: octanol/water
[13] = Dissociation constant, pKa of the compound; format: physicochemical
[14] = molecular target: T1, Glutamate receptor ionotropic AMPA; test: Displacement of [3H]CNQX from AMPA receptor (unknown origin); format: protein-complex assay
Escherichia coli [15] = test: Antibacterial activity against Escherichia coli W3110; format: functional
Streptococcus pneumoniae [16] = test: Antibacterial activity against Streptococcus pneumoniae; format: functional
[17] = molecular target: Glutamate receptor ionotropic, kainate 2 (Homo sapiens, UniProt Q13002); test: Binding affinity to GluK2 receptor (unknown origin)
[18] = molecular target: T2, Glutamate receptor ionotropic, kainate 5 (Homo sapiens, UniProt Q16478); test: Binding affinity to GluK5 receptor (unknown origin)
T2 sequence (Q16478 whole entry): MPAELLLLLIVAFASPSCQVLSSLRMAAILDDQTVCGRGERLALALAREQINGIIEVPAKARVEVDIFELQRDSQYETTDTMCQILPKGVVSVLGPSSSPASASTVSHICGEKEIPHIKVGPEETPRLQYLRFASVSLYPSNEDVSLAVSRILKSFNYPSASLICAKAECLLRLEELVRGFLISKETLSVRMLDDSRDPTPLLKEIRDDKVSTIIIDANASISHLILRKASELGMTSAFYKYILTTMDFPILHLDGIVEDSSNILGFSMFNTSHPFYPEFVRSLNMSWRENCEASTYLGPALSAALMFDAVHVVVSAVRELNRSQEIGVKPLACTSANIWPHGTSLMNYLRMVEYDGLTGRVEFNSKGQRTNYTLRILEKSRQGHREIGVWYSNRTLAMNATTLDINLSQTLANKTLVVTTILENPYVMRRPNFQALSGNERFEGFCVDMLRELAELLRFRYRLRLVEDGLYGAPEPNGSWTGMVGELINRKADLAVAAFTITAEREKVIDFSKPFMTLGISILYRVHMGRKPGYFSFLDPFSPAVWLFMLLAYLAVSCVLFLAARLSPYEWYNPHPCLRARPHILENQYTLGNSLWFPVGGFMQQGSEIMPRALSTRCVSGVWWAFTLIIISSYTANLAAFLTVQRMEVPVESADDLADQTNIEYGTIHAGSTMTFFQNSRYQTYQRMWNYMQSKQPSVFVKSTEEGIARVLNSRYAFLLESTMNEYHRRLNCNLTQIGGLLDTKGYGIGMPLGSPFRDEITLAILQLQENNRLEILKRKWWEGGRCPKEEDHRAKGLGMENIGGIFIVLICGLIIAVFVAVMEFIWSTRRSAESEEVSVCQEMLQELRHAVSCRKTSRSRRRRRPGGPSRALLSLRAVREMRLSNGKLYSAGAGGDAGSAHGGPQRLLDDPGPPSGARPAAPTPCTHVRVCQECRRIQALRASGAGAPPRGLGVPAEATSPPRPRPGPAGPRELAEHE

Glutamate receptor 2 = Glutamate receptor 2 (Homo sapiens, UniProt P42262); test: Binding affinity to GluA2 receptor (unknown origin)
[19] = Inhibition of KA-induced cytotoxicity in human hippocampal cell culture; format: toxicity, cell-based; settings: Hippocampal neurone
[20] = molecular target: Bromodomain-containing protein 4 (Homo sapiens, UniProt O60885); test: Inhibition of BRD4 (unknown origin) using histone-H4 as substrate incubated for 15 mins and measured after 1 hr by AlphaScreen assay
Trypsin = Trypsin (Homo sapiens, UniProt P07477+P07478+P35030); test: Inhibition of trypsin (unknown origin); format: protein assay
Streptococcus pneumoniae [21] = test: Antibacterial activity against Streptococcus pneumoniae assessed as diameter zone of inhibition; format: functional
Staphylococcus aureus [22] = test: Antibacterial activity against Staphylococcus aureus assessed as diameter zone of inhibition; format: functional
Escherichia coli [23] = test: Antibacterial activity against Escherichia coli assessed as diameter zone of inhibition; format: functional
Pseudomonas aeruginosa [24] = test: Antibacterial activity against Pseudomonas aeruginosa assessed as diameter zone of inhibition; format: functional
Salmonella typhimurium = test: Antibacterial activity against Salmonella typhimurium assessed as diameter zone of inhibition; format: functional, Salmonella enterica subsp. enterica serovar Typhimurium
Bacillus subtilis = test: Antibacterial activity against Bacillus subtilis assessed as diameter zone of inhibition; format: functional
[25] = molecular target: Glutamate receptor ionotropic, kainate 1 (Homo sapiens, UniProt P39086); test: Binding affinity to GluK1 receptor (unknown origin)
Mus musculus = test: Antiinflammatory activity against mouse assessed as reduction in carragenan-induced paw edema at 25 mg/kg,po treated 1 hr prior to carrageenan challenge; format: functional; parameters: scale not given: the % may be the effect or the level left
HepG2 = test: Antiproliferative activity against human HepG2 cells; format: functional, cell-based
MCF7 = test: Antiproliferative activity against human MCF7 cells; format: functional, cell-based
[26] = molecular target: T3, Vascular endothelial growth factor receptor 2 (Homo sapiens, UniProt P35968)
PC-3 = test: Antiproliferative activity against human PC-3 cells; format: functional, cell-based
[27] = Antiproliferative activity against human 3AO cells; format: functional, cell-based
[28] = molecular target: T3, Vascular endothelial growth factor receptor 2; test: Inhibition of VEGFR2 (unknown origin) at 1 uM relative to control
K562 = test: Antiproliferative activity against human K562 cells; format: functional, cell-based
HeLa = test: Antiproliferative activity against human HeLa cells; format: functional, cell-based
BEAS-2B = test: Antiproliferative activity against human BEAS-2B cells; format: functional, cell-based

Sequence of Glutamate receptor 2 (P42262 whole entry): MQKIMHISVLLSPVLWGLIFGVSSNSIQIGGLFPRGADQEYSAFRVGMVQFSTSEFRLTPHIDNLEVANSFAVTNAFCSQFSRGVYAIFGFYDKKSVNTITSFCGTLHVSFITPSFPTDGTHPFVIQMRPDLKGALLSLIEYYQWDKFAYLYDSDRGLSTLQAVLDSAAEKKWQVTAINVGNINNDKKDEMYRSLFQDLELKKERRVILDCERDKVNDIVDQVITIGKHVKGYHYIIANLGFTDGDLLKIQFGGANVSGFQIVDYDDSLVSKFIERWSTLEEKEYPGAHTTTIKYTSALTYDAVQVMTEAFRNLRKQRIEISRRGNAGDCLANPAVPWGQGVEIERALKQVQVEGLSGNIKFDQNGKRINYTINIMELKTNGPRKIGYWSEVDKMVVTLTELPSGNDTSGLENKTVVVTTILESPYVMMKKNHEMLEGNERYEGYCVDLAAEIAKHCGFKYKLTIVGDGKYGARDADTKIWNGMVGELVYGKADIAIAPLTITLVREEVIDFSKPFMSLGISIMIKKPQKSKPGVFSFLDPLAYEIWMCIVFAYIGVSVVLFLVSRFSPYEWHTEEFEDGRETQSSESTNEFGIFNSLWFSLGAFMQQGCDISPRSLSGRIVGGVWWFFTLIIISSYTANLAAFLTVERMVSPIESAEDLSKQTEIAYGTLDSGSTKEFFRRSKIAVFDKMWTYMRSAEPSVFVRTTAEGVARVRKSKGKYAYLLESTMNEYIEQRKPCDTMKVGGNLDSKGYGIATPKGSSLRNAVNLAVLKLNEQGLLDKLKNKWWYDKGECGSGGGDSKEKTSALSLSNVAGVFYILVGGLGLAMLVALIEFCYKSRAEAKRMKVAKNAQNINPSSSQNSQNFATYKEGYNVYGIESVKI
Sequence of Glutamate receptor ionotropic, kainate 2 (Q13002 whole entry): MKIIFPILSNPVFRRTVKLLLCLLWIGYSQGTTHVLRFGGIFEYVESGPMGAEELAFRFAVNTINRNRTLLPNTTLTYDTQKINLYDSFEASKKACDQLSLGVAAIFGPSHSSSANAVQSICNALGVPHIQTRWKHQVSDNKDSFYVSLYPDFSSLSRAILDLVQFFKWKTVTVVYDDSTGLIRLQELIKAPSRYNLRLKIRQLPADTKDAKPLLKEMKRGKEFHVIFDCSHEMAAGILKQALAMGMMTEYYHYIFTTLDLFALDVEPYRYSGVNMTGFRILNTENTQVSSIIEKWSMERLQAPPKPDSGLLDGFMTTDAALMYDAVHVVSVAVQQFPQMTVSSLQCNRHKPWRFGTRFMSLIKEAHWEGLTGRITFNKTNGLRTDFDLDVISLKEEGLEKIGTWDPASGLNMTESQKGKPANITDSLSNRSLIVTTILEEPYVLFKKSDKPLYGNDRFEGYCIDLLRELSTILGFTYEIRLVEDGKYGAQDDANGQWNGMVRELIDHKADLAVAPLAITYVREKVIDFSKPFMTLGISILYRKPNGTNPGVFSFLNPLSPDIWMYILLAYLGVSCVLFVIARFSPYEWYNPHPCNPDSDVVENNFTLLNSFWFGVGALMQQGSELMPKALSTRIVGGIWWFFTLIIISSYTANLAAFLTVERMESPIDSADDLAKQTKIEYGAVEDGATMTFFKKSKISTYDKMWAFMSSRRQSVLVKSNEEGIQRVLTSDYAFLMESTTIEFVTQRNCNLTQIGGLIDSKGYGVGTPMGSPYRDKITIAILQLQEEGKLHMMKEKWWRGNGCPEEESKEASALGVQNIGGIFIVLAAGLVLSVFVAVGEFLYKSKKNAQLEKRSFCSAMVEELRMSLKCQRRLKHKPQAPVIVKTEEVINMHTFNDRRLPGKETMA
T3 sequence (P35968 whole entry): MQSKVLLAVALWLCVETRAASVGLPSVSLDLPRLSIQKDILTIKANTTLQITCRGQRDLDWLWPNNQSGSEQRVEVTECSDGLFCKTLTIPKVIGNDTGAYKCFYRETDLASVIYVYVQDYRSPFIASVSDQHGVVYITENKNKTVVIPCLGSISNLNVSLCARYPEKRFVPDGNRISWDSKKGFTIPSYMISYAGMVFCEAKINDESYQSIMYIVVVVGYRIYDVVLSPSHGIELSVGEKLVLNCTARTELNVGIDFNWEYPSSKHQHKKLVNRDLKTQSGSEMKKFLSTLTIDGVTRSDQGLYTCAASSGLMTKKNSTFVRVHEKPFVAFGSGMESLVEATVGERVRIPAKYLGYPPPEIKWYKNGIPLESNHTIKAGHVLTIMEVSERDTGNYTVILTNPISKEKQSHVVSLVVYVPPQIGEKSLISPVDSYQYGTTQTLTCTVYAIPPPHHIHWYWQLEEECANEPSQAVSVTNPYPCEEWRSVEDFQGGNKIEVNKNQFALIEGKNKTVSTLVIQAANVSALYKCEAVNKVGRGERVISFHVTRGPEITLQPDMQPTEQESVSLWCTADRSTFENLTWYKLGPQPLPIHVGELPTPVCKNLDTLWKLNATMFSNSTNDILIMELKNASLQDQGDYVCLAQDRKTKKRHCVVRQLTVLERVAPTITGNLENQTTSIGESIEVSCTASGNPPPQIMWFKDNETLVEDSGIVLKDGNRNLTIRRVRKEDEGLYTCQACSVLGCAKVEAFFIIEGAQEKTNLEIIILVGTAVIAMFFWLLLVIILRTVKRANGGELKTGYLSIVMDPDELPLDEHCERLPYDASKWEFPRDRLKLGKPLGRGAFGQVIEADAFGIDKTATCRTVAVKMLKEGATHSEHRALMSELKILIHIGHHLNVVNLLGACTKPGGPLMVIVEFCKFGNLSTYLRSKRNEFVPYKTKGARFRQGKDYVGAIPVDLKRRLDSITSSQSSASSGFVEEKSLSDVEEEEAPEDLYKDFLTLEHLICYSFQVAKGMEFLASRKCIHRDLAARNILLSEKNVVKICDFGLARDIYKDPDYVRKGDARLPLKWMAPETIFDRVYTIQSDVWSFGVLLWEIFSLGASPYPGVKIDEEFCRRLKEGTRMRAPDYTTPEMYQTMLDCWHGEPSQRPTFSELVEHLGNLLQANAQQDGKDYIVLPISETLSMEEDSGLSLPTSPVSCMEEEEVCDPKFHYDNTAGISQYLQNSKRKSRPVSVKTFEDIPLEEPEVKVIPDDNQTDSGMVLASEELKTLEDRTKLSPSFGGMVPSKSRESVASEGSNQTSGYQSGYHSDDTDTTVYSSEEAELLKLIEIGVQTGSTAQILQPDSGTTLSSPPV
Sequence of Voltage-gated inwardly rectifying potassium channel KCNH2 (Q12809 whole entry): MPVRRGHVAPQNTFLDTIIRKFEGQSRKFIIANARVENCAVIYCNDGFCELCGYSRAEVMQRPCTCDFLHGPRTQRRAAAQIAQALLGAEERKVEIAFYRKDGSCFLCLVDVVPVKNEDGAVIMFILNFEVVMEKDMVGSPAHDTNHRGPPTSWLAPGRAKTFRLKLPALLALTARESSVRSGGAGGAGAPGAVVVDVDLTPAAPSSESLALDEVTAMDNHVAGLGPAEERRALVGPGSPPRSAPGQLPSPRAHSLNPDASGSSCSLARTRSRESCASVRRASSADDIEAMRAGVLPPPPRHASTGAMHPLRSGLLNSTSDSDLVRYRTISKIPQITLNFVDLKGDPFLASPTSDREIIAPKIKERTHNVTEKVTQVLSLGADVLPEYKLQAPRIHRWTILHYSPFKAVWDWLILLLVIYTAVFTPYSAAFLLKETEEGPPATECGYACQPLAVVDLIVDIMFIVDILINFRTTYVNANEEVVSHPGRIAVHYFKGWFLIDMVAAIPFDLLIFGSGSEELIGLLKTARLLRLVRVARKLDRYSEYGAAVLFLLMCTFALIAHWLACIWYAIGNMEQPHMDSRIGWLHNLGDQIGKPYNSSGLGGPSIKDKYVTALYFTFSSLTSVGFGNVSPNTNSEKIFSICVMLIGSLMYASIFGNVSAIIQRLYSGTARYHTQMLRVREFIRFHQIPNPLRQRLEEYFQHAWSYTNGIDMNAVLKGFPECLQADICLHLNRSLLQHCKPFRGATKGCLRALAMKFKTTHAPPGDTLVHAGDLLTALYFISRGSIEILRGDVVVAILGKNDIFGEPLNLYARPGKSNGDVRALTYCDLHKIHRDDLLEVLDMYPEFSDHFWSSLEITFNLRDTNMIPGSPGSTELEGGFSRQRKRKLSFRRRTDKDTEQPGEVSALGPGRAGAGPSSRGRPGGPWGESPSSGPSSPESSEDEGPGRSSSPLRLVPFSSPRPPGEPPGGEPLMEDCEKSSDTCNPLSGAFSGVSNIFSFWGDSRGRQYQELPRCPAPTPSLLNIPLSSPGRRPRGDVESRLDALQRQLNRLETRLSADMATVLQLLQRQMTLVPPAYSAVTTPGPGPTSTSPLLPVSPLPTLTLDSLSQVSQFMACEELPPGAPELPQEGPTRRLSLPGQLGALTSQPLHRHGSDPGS

O=C(O)c1nc2c(O)nc3cc(Cl)c(-n4cccc4)cc3n2n1
Ki [1]: 0.86 µM | IC50 [2]: 52 µM | IC50 [3]: 11.7 µM | IC50 [4]: 36 µM | Ki [5]: 0.86 µM | IC50 [6]: 3 µM

N[C@H](Cn1c(=O)cnc2ccc(F)cc21)[C@H]1CC[C@H](NCc2ncc3c(n2)NC(=O)CO3)CC1
IC50 [7]: > 333 µM | MIC (Staphylococcus aureus [8]): 1 µg/mL (≈ 2.14 µM) | MIC90 (Klebsiella pneumoniae): 16 µg/mL (≈ 34.2 µM) | MIC (Escherichia coli [9]): < 0.06 µg/mL | MIC90 (Escherichia coli [9]): 1 µg/mL (≈ 2.14 µM) | IC50 [10]: 0.003 µM | MIC (Pseudomonas aeruginosa [11]): 0.5 µg/mL (≈ 1.07 µM) | MIC90 (Pseudomonas aeruginosa [11]): 4 µg/mL (≈ 8.56 µM) | logD [12]: -0.32 | pKa [13]: 7.28

O=c1[nH]c2cc(CO)c(CO)cc2[nH]c1=O
IC50 [1]: 9.3 µM | IC50 [14]: 9.2 µM | IC50 [4]: > 100 µM

COc1ccc2ncc(=O)n(CCN3CCC(NCc4ccc5c(n4)NC(=O)CO5)CC3)c2c1
MIC (Staphylococcus aureus [8]): 0.03 µg/mL (≈ 0.0646 µM) | IC50 [10]: 0.0022 µM | MIC (Pseudomonas aeruginosa [11]): 1 µg/mL (≈ 2.15 µM) | MIC (Escherichia coli [15]): 0.13 µg/mL (≈ 0.28 µM) | logD [12]: 0.6 | MIC (Streptococcus pneumoniae [16]): 0.08 µg/mL (≈ 0.172 µM) | pKa [13]: 5.56

O=C(Nn1c(=O)c(=O)[nH]c2cc(C#CCO)ccc21)c1ccccc1
Ki [17]: 9.78 µM | Ki [18]: 100 µM | Ki (Glutamate receptor 2): 37.4 µM

O=c1[nH]c2cc(C(F)(F)F)c(-n3ccnc3)nc2n2ccnc12
Ki [1]: 0.066 µM | IC50 [19]: 0.32 µM

Cc1noc(C)c1-c1ccc2c(c1)C(Cc1ccccc1)NC(=O)N2C (centres undefined)
IC50 [20]: 0.032 µM

Cn1c(=O)c(Cc2ccc(C(=N)N)cc2)nc2cc(C3(N(C(=O)CC(=O)O)C4CCCC4)CC3)ccc21
IC50 (Trypsin): 0.55 µM

Cc1cccc(C)c1NCC(=O)N1CC(=O)Nc2ccccc21
diameter of the inhibition zone (DIZ) (Streptococcus pneumoniae [21]): 8 mm | diameter of the inhibition zone (DIZ) (Staphylococcus aureus [22]): 8 mm | diameter of the inhibition zone (DIZ) (Escherichia coli [23]): 10 mm | diameter of the inhibition zone (DIZ) (Pseudomonas aeruginosa [24]): 11 mm | diameter of the inhibition zone (DIZ) (Salmonella typhimurium): 9 mm | diameter of the inhibition zone (DIZ) (Bacillus subtilis): 11 mm

O=C(Nn1c(=O)c(=O)[nH]c2cc(C#Cc3ccccc3)ccc21)c1ccccc1
Ki [25]: > 100 µM | Ki [17]: 100 µM | Ki [18]: > 100 µM | Ki (Glutamate receptor 2): 23.6 µM

CC(C)Cc1ccc(C(C)C(=O)O)cc1 (centres undefined) [IBUPROFEN]
Activity (Mus musculus): 39.3%

O=C1CN(C(=O)CNc2cccc(Cl)c2)c2ccccc2N1
diameter of the inhibition zone (DIZ) (Escherichia coli [23]): 9 mm | diameter of the inhibition zone (DIZ) (Salmonella typhimurium): 9 mm

O=Cc1ccn(-c2cc3c(cc2Cl)nc(O)c2nc(C(=O)O)nn23)c1
Ki [1]: 0.53 µM | IC50 [2]: 23 µM | IC50 [3]: 43 µM | IC50 [4]: 8.9 µM | Ki [5]: 28 µM | IC50 [6]: 1.2 µM

O=C(Cn1c(=O)c2nncn2c2ccccc21)Nc1ccc(C(=O)Nc2cc(Cl)ccc2Cl)cc1
IC50 (HepG2): 8.4 µM | IC50 (MCF7): 10.3 µM | IC50 [26]: 0.0048 µM

O=c1[nH]c2cc([N+](=O)[O-])c(-n3ccnc3)nc2n2ccnc12
Ki [1]: 0.057 µM | IC50 [19]: 0.3 µM

CCc1cnc2c(=O)[nH]c3cc([N+](=O)[O-])c(-n4ccnc4)nc3n12
Ki [1]: 0.02 µM | IC50 [19]: 0.3 µM

O=C(Cn1c(=O)c(/C=C/c2ccncc2)nc2ccccc21)Nc1ccc(F)cc1
IC50 (PC-3): 59.9 µM | IC50 [27]: > 100 µM | inhibition [28]: 6% | IC50 (MCF7): 49 µM | IC50 (K562): > 100 µM | IC50 (HeLa): > 100 µM | IC50 (BEAS-2B): > 100 µM

O=c1[nH]c2cc([N+](=O)[O-])c([N+](=O)[O-])cc2[nH]c1=O [DNQX]
IC50 [1]: 0.93 µM | IC50 [14]: 1.4 µM | IC50 [4]: 2.2 µM

COc1cnc2ccc(=O)n(C[C@@H](N)[C@H]3CC[C@H](NCc4ccc5c(n4)NC(=O)CO5)CC3)c2c1
IC50 [7]: > 333 µM | MIC (Staphylococcus aureus [8]): 8 µg/mL (≈ 16.7 µM) | MIC (Klebsiella pneumoniae): 8 µg/mL (≈ 16.7 µM) | MIC (Escherichia coli [9]): 0.5 µg/mL (≈ 1.04 µM) | MIC90 (Escherichia coli [9]): 0.5 µg/mL (≈ 1.04 µM) | IC50 [10]: 0.002 µM | MIC (Pseudomonas aeruginosa [11]): 1 µg/mL (≈ 2.09 µM) | MIC90 (Pseudomonas aeruginosa [11]): 4 µg/mL (≈ 8.36 µM) | logD [12]: -0.86 | pKa [13]: 7.66
